Data published in ChEMBL document CHEMBL1135268, “Design, synthesis and in vitro evaluation of potent, novel, small molecule inhibitors of plasminogen activator inhibitor-1” (Bioorg Med Chem Lett, 2002).
pIC50: −log10 of the molar value.

Each molecule was assayed against T1, Plasminogen activator inhibitor 1 (Homo sapiens, UniProt P05121) (assay: Inhibitory activity against human plasminogen activator inhibitor-1 (PAI-1) evaluated by chromogenic assay.).
T1 sequence (P05121 whole entry): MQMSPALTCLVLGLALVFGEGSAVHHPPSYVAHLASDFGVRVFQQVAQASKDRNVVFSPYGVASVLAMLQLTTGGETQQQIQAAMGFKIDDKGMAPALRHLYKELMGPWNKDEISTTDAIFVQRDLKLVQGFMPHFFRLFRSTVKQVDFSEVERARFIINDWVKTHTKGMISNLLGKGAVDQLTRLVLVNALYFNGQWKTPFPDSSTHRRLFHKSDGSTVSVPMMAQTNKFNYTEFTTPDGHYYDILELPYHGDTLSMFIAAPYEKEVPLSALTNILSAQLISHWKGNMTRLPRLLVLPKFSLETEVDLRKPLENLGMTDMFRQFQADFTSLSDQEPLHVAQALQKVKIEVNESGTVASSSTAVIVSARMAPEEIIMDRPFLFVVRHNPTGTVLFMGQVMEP

| SMILES | pIC50 |
| --- | --- |
| O=C(Nc1ccc(OCCCCCCCn2cnnn2)cc1)c1c(O)c2cc(-c3cc4ccccc4s3)ccc2[nH]c1=O | 6.00 |
| O=C(O)CCCCCCCOc1ccc(NC(=O)c2c(O)c3cc(-c4cc5ccccc5s4)ccc3[nH]c2=O)cc1 | 6.30 |
| O=C(O)CCCCCCCOc1ccc(NC(=O)c2c(O)c3cccc(-c4cccc5ccccc45)c3[nH]c2=O)cc1 | < 4.30 |
| O=C(O)CCCCCCCOc1ccc(NC(=O)C2=C(O)CN(Cc3ccccc3)C2=O)cc1 | < 4.30 |
| O=C(O)CCCCCCCOc1ccc(NC(=O)C2=C(O)C(c3ccccc3)NC2=O)cc1 (stereo not drawn) | 4.31 |
| Nc1ccc2nc(O)c(C(=O)Nc3ccc(OCCCCCCCC(=O)O)cc3)c(O)c2c1 | < 4.70 |
| O=C(O)CCCCCCCOc1ccc(NC(=O)c2c(O)nc3ccc(I)cc3c2O)cc1 | 5.66 |
| CC1C(O)=C(C(=O)Nc2ccc(OCCCCCCCC(=O)O)cc2)C(=O)N1c1ccccc1 (stereo not drawn) | < 4.30 |
| O=C(O)CCCCCCCOc1ccc(NC(=O)c2c(O)nc3ccc(Cl)cc3c2O)cc1 | 5.71 |
| COc1ccccc1N1CC(O)=C(C(=O)Nc2ccc(OCCCCCCCC(=O)O)cc2)C1=O | < 4.30 |
| O=C(O)CCCCCCCOc1ccc(NC(=O)c2c(O)c3ccccc3[nH]c2=O)cc1 | 5.73 |
| O=C(O)CCCCCCCOc1ccc(NC(=O)c2c(O)nc3ccc(-c4csc5ccccc45)cc3c2O)cc1 | 6.29 |
| COc1ccc(N2CC(O)=C(C(=O)Nc3ccc(OCCCCCCCC(=O)O)cc3)C2=O)cc1 | 5.44 |
| O=C(O)CCCCCCCOc1ccc(NC(=O)C2=C(O)CN(c3ccc4ccccc4c3)C2=O)cc1 | 5.40 |
| O=C(O)CCCCCCCOc1ccc(NC(=O)c2c(O)c3c(Cl)cccc3[nH]c2=O)cc1 | 5.52 |
| O=C(O)CCCCCCCOc1ccc(NC(=O)c2c(O)c3c(I)cccc3[nH]c2=O)cc1 | 5.15 |
| O=C(O)CCCCCCCOc1ccc(NC(=O)C2=C(O)CN(c3ccccc3)C2=O)cc1 | 4.68 |
| O=C(O)CCCCCCCOc1ccc(NC(=O)c2c(O)c3ccc(C(F)(F)F)cc3[nH]c2=O)cc1 | 5.99 |
| O=C(O)CCCCCCCOc1ccc(NC(=O)C2=C(O)CN(c3ccc(Br)cc3)C2=O)cc1 | 5.70 |
| O=C(O)CCCCCCCOc1ccc(NC(=O)c2c(O)c3cc(F)ccc3[nH]c2=O)cc1 | 5.31 |
| Nc1cccc2nc(O)c(C(=O)Nc3ccc(OCCCCCCCC(=O)O)cc3)c(O)c12 | 5.37 |
| COc1cc2[nH]c(=O)c(C(=O)Nc3ccc(OCCCCCCCC(=O)O)cc3)c(O)c2cc1OC | 5.78 |
| COC(=O)c1cccc(N2CC(O)=C(C(=O)Nc3ccc(OCCCCCCCC(=O)O)cc3)C2=O)c1 | 4.75 |
| O=C(O)CCCCCCCOc1ccc(NC(=O)C2=C(O)CN(c3ccccc3Cl)C2=O)cc1 | < 4.30 |
| CC(C)c1ccc(N2CC(O)=C(C(=O)Nc3ccc(OCCCCCCCC(=O)O)cc3)C2=O)cc1 | 5.63 |
| O=C(O)CCCCCCCOc1ccc(NC(=O)C2=C(O)CN(c3cccc4ccccc34)C2=O)cc1 | < 4.30 |
| O=C(O)CCCCCCCOc1ccc(NC(=O)c2c(O)c3ccc(-c4ccc5ccccc5c4)cc3[nH]c2=O)cc1 | 6.22 |
| O=C(O)CCCCCCCOc1ccc(NC(=O)C2=C(O)CN(c3ccc([N+](=O)[O-])cc3)C2=O)cc1 | 5.37 |
| O=C(O)CCCCCCCOc1ccc(NC(=O)c2c(O)nc3cc(F)c(F)cc3c2O)cc1 | 5.63 |

Next, values leading:

| pIC50 | SMILES |
| --- | --- |
| 6.70 | O=C(O)CCCCCCCOc1ccc(/C=c2/[nH]c(=O)/c(=C/c3ccc(NC(=O)c4cccs4)cc3)[nH]c2=O)cc1 |
| < 4.30 | O=C(O)CCCCCCCOc1ccc(NC(=O)C2=C(O)C(Cc3ccc(O)cc3)NC2=O)cc1 (stereo not drawn) |
| 4.52 | COc1ccc(-c2cccc3c(O)c(C(=O)Nc4ccc(OCCCCCCCC(=O)O)cc4)c(=O)[nH]c23)cc1 |
| 6.05 | Cc1ccc(N2CC(O)=C(C(=O)Nc3ccc(OCCCCCCCn4cnnn4)cc3)C2=O)cc1 |
| 6.52 | O=C(O)CCCCCCCOc1ccc(NC(=O)c2c(O)c3ccc(-c4cc5ccccc5s4)cc3[nH]c2=O)cc1 |
| 5.30 | O=C(O)CCCCCCCOc1ccc(NC(=O)C2=C(O)CN(c3ccc(Cl)cc3)C2=O)cc1 |
| 6.05 | N#Cc1ccc2c(O)c(C(=O)Nc3ccc(OCCCCCCCC(=O)O)cc3)c(=O)[nH]c2c1 |
| 4.89 | O=C(O)CCCCCCCOc1ccc(NC(=O)C2=C(O)CN(c3ccc(Cl)c(Cl)c3)C2=O)cc1 |
| 6.17 | O=C(O)CCCCCCCOc1ccc(NC(=O)c2c(O)c3cc(-c4ccc5ccccc5c4)ccc3[nH]c2=O)cc1 |
| < 4.30 | COC(=O)CCCCCCCOc1ccc(NC(=O)C2=C(O)CN(c3ccc(Cl)cc3)C2=O)cc1 |
| 5.44 | O=C(O)CCCCCCCOc1ccc(NC(=O)c2c(O)nc3ccc([N+](=O)[O-])cc3c2O)cc1 |
| 5.71 | Cc1ccc(N2CC(O)=C(C(=O)Nc3ccc(OCCCCCCCC(=O)O)cc3)C2=O)cc1 |
| 5.70 | O=C(O)CCCCCCCOc1ccc(NC(=O)c2c(O)c3cc(-c4ccc(Cl)cc4)ccc3[nH]c2=O)cc1 |
| < 4.52 | Nc1ccc2c(O)c(C(=O)Nc3ccc(OCCCCCCCC(=O)O)cc3)c(O)nc2c1 |
| 5.10 | O=C(O)CCCCCCCOc1ccc(NC(=O)c2c(O)c3c([N+](=O)[O-])cccc3[nH]c2=O)cc1 |
| 5.74 | CCCCCc1ccc2[nH]c(=O)c(C(=O)Nc3ccc(OCCCCCCCC(=O)O)cc3)c(O)c2c1 |
| 6.16 | O=C(Nc1ccc(OCCCCCCCn2cnnn2)cc1)C1=C(O)CN(c2ccc(Cl)cc2)C1=O |
| < 4.30 | CC(=O)Nc1ccc(N2CC(O)=C(C(=O)Nc3ccc(OCCCCCCCC(=O)O)cc3)C2=O)cc1 |
| < 4.30 | O=C(O)CCCCCCCOc1ccc(NC(=O)C2=C(O)CN(c3ccc(N4CCOCC4)cc3)C2=O)cc1 |

These molecules were tested against T1, Plasminogen activator inhibitor 1 (assay: Inhibitory activity against human plasminogen activator inhibitor-1 (PAI-1) evaluated by complex assay.).

| SMILES | pIC50 |
| --- | --- |
| O=C(Nc1ccc(OCCCCCCCn2cnnn2)cc1)c1c(O)c2cc(-c3cc4ccccc4s3)ccc2[nH]c1=O | 6.54 |
| O=C(O)CCCCCCCOc1ccc(NC(=O)c2c(O)nc3ccc(-c4csc5ccccc45)cc3c2O)cc1 | 6.03 |

The remaining lines, values ahead:

| pIC50 | SMILES |
| --- | --- |
| 6.29 | O=C(O)CCCCCCCOc1ccc(/C=c2/[nH]c(=O)/c(=C/c3ccc(NC(=O)c4cccs4)cc3)[nH]c2=O)cc1 |
| 6.08 | Cc1ccc(N2CC(O)=C(C(=O)Nc3ccc(OCCCCCCCn4cnnn4)cc3)C2=O)cc1 |
| 6.52 | O=C(Nc1ccc(OCCCCCCCn2cnnn2)cc1)C1=C(O)CN(c2ccc(Cl)cc2)C1=O |
